Test results taken from patent US20040116299A1, “Phthalamide derivates, insecticides for agricultural and horticultural use and method for application thereof” (priority 2001, published 2004).

Assays:
Type in all cases: in vivo
[1] = tested on: Diamond Back Moth (Plutella xylostella); assay: Test Example 1: insecticidal effect on diamond back moth, immersion of Chinese cabbage seedling bearing eggs; conditions: seedling with eggs immersed about 30 seconds, counted six days after immersion, 25° C.; for mortality at 5 ppm / mortality at 50 ppm: Plutella xylostella, 144 h, read-out: Test Example 1 insecticidal effect (mortality criterion)
Description: Insecticidal Effect on Diamond Back Moth (Plutella xylostella)
Adult diamond back moths were released and allowed to oviposit on a Chinese cabbage seedling. Two days after the release, the seedling having the eggs deposited thereon was immersed for about 30 seconds in a liquid chemical prepared by diluting a preparation containing each compound listed in Table 1 or 2 as an active ingredient to adjust the prescribed concentration. After air-dryness, it was allowed to stand in a room thermostatted at 25° C. Six days after the immersion, the hatched insects were counted. The mortality was calculated according to the following equation and the insecticidal effect was judged according to the criterion shown below. The test was carried out with triplicate groups of 10 insects. [formula]
The compounds described in JP-A-2001-131141 were used as comparative compounds as follows: […]

[2] = tested on: Common Cutworm (Spodoptera litura); assay: Test Example 2: insecticidal effect on common cutworm, cabbage leaf dip, second-instar larvae; conditions: cabbage leaf immersed about 30 seconds, counted eight days after inoculation, 25° C.; for mortality at 5 ppm / mortality at 50 ppm: Spodoptera litura, foliar, 192 h, read-out: Test Example 2 insecticidal effect (mortality criterion)
Description: Insecticidal Effect on Common Cutworm (Spodoptera litura)
A piece of cabbage leaf (cultivar; Shikidori) was immersed for about 30 seconds in a liquid chemical prepared by diluting a preparation containing each compound listed in Table 1 or 2 as an active ingredient to adjust the prescribed concentration. After air-dryness, it was placed in a plastic Petri dish with a diameter of 9 cm and inoculated with second-instar larvae of common cutworm, after which the dish was closed and then allowed to stand in a room thermostatted at 25° C. Eight days after the inoculation, the dead and alive were counted. The mortality was calculated according to the following equation and the insecticidal effect was judged according to the criterion shown in Test Example 1. The test was carried out with triplicate groups of 10 insects. [formula]

[3] = tested on: diamondback moth (Plutella xylostella); assay: Test Example 3: controlling effect on diamondback moth by soil treatment for cabbage (planting-hole granules); conditions: 20 mgAI/plant granules in planting hole; for Number of parasites/3 plants After 18 days: 18 days after trans-planting; for Number of parasites/3 plants After 25 days: 25 days after trans-planting; for Number of parasites/3 plants After 32 days: 32 days after trans-planting; for Number of parasites/3 plants After 42 days: 42 days after trans-planting
Method: Controlling effect on diamondback moth (Plutella xylostella) by soil treatment for cabbage At the time of trans-planting cabbage plants (cultivar: YR Seitoku), planting holes were treated with granules prepared from the compound listed in Table 1 or 2 according to Formulation Example. Diamondback moths parasitic on the cabbage plants were counted on predetermined days after the trans-planting. In Table 4, mgAI/plant denotes the dosage (mg) of the active ingredient per plant.

SMILES | mortality at 5 ppm ([1]; 5 ppm) [%] | mortality at 50 ppm ([1]; 50 ppm) [%] | mortality at 5 ppm [2] [%] | mortality at 50 ppm ([2]; 50 ppm) [%] | Number of parasites/3 plants After 18 days [3] [parasites/3 plants] | Number of parasites/3 plants After 25 days [3] [parasites/3 plants] | Number of parasites/3 plants After 32 days [3] [parasites/3 plants] | Number of parasites/3 plants After 42 days [3] [parasites/3 plants] | Test Example 1 insecticidal effect (mortality criterion) ([1]; 5 ppm) | Test Example 1 insecticidal effect (mortality criterion) ([1]; 50 ppm) | Test Example 2 insecticidal effect (mortality criterion) ([2]; 50 ppm)
CSCC(C)NC(=O)c1cccc(I)c1C(=O)Nc1ccc(Cl)cc1C (stereo not shown) [A, N^2-(4-chloro-2-methylphenyl)-3-iodo-N^1-(1-methyl-2-methylthioethyl)phthalamide, reference compound] | 0 to 49 | 100 | 0 to 49 | 0 to 49 | 8 | 75 | 143 | 146 | – | – | –
CCSCC(C)NC(=O)c1cccc(I)c1C(=O)Nc1ccc(Cl)cc1C (stereo not shown) [B, N^2-(4-chloro-2-methylphenyl) -3-iodo-N^1-(2-ethylthio-1-methylethyl)phthalamide, reference compound] | 0 to 49 | 100 | 0 to 49 | 0 to 49 | – | – | – | – | – | – | –
Cc1cc(Cl)ccc1NC(=O)c1cccc(I)c1C(=O)NC(C)(C)C[S+](C)[O-] (stereo not shown) [compound 25] | – | – | – | – | 0 | 0 | 6 | 22 | – | – | –
Cc1cc(Br)ccc1NC(=O)c1cccc(I)c1C(=O)NC(C)(C)C[S+](C)[O-] (stereo not shown) [compound 28] | – | – | – | – | 0 | 7 | 23 | 59 | – | – | –
CSCC(C)(C)NC(=O)c1c(I)cccc1C(=O)Nc1ccc(I)cc1C [compound 30, N^2-(1,1-dimethyl-2-methylthioethyl)-3-iodo-N^1-(4-iodo-2-methylphenyl)phthalamide] | 100 | 100 | 0 to 49 | 100 | 0 | 9 | 19 | 37 | – | – | –
Cc1cc(I)ccc1NC(=O)c1cccc(I)c1C(=O)NC(C)(C)C[S+](C)[O-] (stereo not shown) [compound 31, N^2-(1,1-dimethyl-2-methylsulfinylethyl)-3-iodo-N^1-(4-iodo-2-methylphenyl)phthalamide] | 100 | 100 | 0 to 49 | 100 | – | – | – | – | – | – | –
Cc1cc(I)ccc1NC(=O)c1cccc(I)c1C(=O)NC(C)(C)CS(C)(=O)=O [compound 32, N^2-(1,1-dimethyl-2-methylsulfonylethyl)-3-iodo-N^1-(4-iodo-2-methylphenyl)phthalamide] | 100 | 100 | 0 to 49 | 100 | – | – | – | – | – | – | –
CC(C)(CS(C)(=O)=O)NC(=O)c1c(I)cccc1C(=O)Nc1ccc(Cl)cc1Cl [compound 101] | – | – | – | – | – | – | – | – | A (Mortality 100%) | A (Mortality 100%) | –
CSCC(C)(C)NC(=O)c1c(I)cccc1C(=O)Nc1ccc(Cl)c(C(F)(F)F)c1Cl [compound 142] | – | – | – | – | – | – | – | – | – | A (Mortality 100%) | A (Mortality 100%)
